# Data reported in PMC9487510, “A Novel Oral GyrB/ParE Dual Binding Inhibitor Effective against Multidrug-Resistant Neisseria gonorrhoeae and Other High-Threat Pathogens” (Antimicrobial Agents and Chemotherapy, 2022).
# Like-named read-outs stand apart in the source and are kept apart here.
# Test system: N. gonorrhoeae clinical isolates
# Test: MIC, agar dilution (CLSI)
# Format: cell-based, Neisseria gonorrhoeae
# Details: for MIC: read-out: MIC
structure (smiles),measurement,setting,value
"C=CC1=C(C(=O)O)N2C(=O)[C@@H](NC(=O)/C(=N\OCC(=O)O)c3csc(N)n3)[C@H]2SC1 [Cfx, cefixime]",MIC range,96 clinical isolates,0.016 to 4 µg/mL
same,MIC,"Neisseria gonorrhoeae, strain CDC1 (GCREF2012 016)",0.125 µg/mL
same,MIC,"Neisseria gonorrhoeae, strain CDC2 (GCREF2012 045)",0.125 µg/mL
same,MIC,"Neisseria gonorrhoeae, strain CDC3 (GCREF2013 013)",0.125 µg/mL
same,MIC,"Neisseria gonorrhoeae, strain CDC4 (GCREF2013 030)",0.125 µg/mL
same,MIC,"Neisseria gonorrhoeae, strain CDC5 (GCREF2012 001)",0.125 µg/mL
same,MIC,"Neisseria gonorrhoeae, strain CDC6 (GCREF2012 002)",0.25 µg/mL
same,MIC,"Neisseria gonorrhoeae, strain CDC8 (GCREF2012 004)",0.125 µg/mL
same,MIC,"Neisseria gonorrhoeae, strain CDC9 (GCREF2012 005)",0.125 µg/mL
same,MIC,"Neisseria gonorrhoeae, strain CDC10 (GCREF2012 006)",0.125 µg/mL
same,MIC,"Neisseria gonorrhoeae, strain CDC11 (GCREF2012 007)",0.125 µg/mL
same,MIC,"Neisseria gonorrhoeae, strain CDC12 (GCREF2012 008)",0.25 µg/mL
same,MIC,"Neisseria gonorrhoeae, strain CDC13 (GCREF2012 009)",0.063 µg/mL
same,MIC,"Neisseria gonorrhoeae, strain CDC14 (GCREF2012 010)",0.25 µg/mL
same,MIC,"Neisseria gonorrhoeae, strain CDC15 (GCREF2012 011)",0.031 µg/mL
same,MIC,"Neisseria gonorrhoeae, strain CDC16 (GCREF2012 012)",4 µg/mL
same,MIC,"Neisseria gonorrhoeae, strain CDC18 (GCREF2012 014)",0.063 µg/mL
same,MIC,"Neisseria gonorrhoeae, strain CDC19 (GCREF2012 015)",0.125 µg/mL
same,MIC,"Neisseria gonorrhoeae, strain CDC20 (GCREF2012 017)",0.125 µg/mL
same,MIC,"Neisseria gonorrhoeae, strain CDC21 (GCREF2012 018)",0.25 µg/mL
same,MIC,"Neisseria gonorrhoeae, strain CDC22 (GCREF2012 019)",0.031 µg/mL
same,MIC,"Neisseria gonorrhoeae, strain CDC23 (GCREF2012 020)",0.125 µg/mL
same,MIC,"Neisseria gonorrhoeae, strain CDC24 (GCREF2012 021)",0.063 µg/mL
same,MIC,"Neisseria gonorrhoeae, strain CDC25 (GCREF2012 022)",0.25 µg/mL
same,MIC,"Neisseria gonorrhoeae, strain CDC26 (GCREF2012 023)",0.063 µg/mL
same,MIC,"Neisseria gonorrhoeae, strain CDC27 (GCREF2012 024)",0.063 µg/mL
same,MIC,"Neisseria gonorrhoeae, strain CDC28 (GCREF2012 025)",0.25 µg/mL
same,MIC,"Neisseria gonorrhoeae, strain CDC29 (GCREF2012 026)",0.125 µg/mL
same,MIC,"Neisseria gonorrhoeae, strain CDC30 (GCREF2012 027)",0.125 µg/mL
same,MIC,"Neisseria gonorrhoeae, strain CDC31 (GCREF2012 028)",0.25 µg/mL
same,MIC,"Neisseria gonorrhoeae, strain CDC32 (GCREF2012 029)",0.125 µg/mL
same,MIC,"Neisseria gonorrhoeae, strain CDC33 (GCREF2012 030)",0.5 µg/mL
same,MIC,"Neisseria gonorrhoeae, strain CDC34 (GCREF2012 031)",0.063 µg/mL
same,MIC,"Neisseria gonorrhoeae, strain CDC35 (GCREF2012 032)",0.25 µg/mL
same,MIC,"Neisseria gonorrhoeae, strain CDC36 (GCREF2012 033)",0.063 µg/mL
same,MIC,"Neisseria gonorrhoeae, strain CDC37 (GCREF2012 034)",0.125 µg/mL
same,MIC,"Neisseria gonorrhoeae, strain CDC38 (GCREF2012 035)",0.063 µg/mL
same,MIC,"Neisseria gonorrhoeae, strain CDC39 (GCREF2012 036)",0.25 µg/mL
same,MIC,"Neisseria gonorrhoeae, strain CDC40 (GCREF2012 037)",0.125 µg/mL
same,MIC,"Neisseria gonorrhoeae, strain CDC41 (GCREF2012 038)",0.25 µg/mL
same,MIC,"Neisseria gonorrhoeae, strain CDC42 (GCREF2012 039)",0.25 µg/mL
same,MIC,"Neisseria gonorrhoeae, strain CDC43 (GCREF2012 040)",0.25 µg/mL
same,MIC,"Neisseria gonorrhoeae, strain CDC45 (GCREF2012 042)",0.25 µg/mL
same,MIC,"Neisseria gonorrhoeae, strain CDC46 (GCREF2012 043)",0.125 µg/mL
same,MIC,"Neisseria gonorrhoeae, strain CDC47 (GCREF2012 044)",0.125 µg/mL
same,MIC,"Neisseria gonorrhoeae, strain CDC48 (GCREF2012 046)",0.125 µg/mL
same,MIC,"Neisseria gonorrhoeae, strain CDC49 (GCREF2012 047)",0.25 µg/mL
same,MIC,"Neisseria gonorrhoeae, strain CDC50 (GCREF2012 048)",0.25 µg/mL
same,MIC,"Neisseria gonorrhoeae, strain CDC51 (GCREF2012 049)",0.125 µg/mL
same,MIC,"Neisseria gonorrhoeae, strain CDC52 (GCREF2012 050)",0.25 µg/mL
same,MIC,"Neisseria gonorrhoeae, strain CDC53 (GCREF2012 051)",0.25 µg/mL
same,MIC,"Neisseria gonorrhoeae, strain CDC54 (GCREF2012 052)",0.25 µg/mL
same,MIC,"Neisseria gonorrhoeae, strain CDC55 (GCREF2013 001)",0.125 µg/mL
same,MIC,"Neisseria gonorrhoeae, strain CDC56 (GCREF2013 002)",0.25 µg/mL
same,MIC,"Neisseria gonorrhoeae, strain CDC57 (GCREF2013 003)",0.125 µg/mL
same,MIC,"Neisseria gonorrhoeae, strain CDC58 (GCREF2013 004)",0.25 µg/mL
same,MIC,"Neisseria gonorrhoeae, strain CDC59 (GCREF2013 044)",0.25 µg/mL
same,MIC,"Neisseria gonorrhoeae, strain CDC60 (GCREF2013 005)",0.125 µg/mL
same,MIC,"Neisseria gonorrhoeae, strain CDC61 (GCREF2013 006)",0.125 µg/mL
same,MIC,"Neisseria gonorrhoeae, strain CDC62 (GCREF2013 007)",0.25 µg/mL
same,MIC,"Neisseria gonorrhoeae, strain CDC63 (GCREF2013 008)",0.125 µg/mL
same,MIC,"Neisseria gonorrhoeae, strain CDC64 (GCREF2013 009)",0.125 µg/mL
same,MIC,"Neisseria gonorrhoeae, strain CDC65 (GCREF2013 010)",0.125 µg/mL
same,MIC,"Neisseria gonorrhoeae, strain CDC66 (GCREF2013 011)",0.125 µg/mL
same,MIC,"Neisseria gonorrhoeae, strain CDC67 (GCREF2013 014)",0.125 µg/mL
same,MIC,"Neisseria gonorrhoeae, strain CDC68 (GCREF2013 016)",0.063 µg/mL
same,MIC,"Neisseria gonorrhoeae, strain CDC69 (GCREF2013 017)",0.063 µg/mL
same,MIC,"Neisseria gonorrhoeae, strain CDC70 (GCREF2013 018)",0.125 µg/mL
same,MIC,"Neisseria gonorrhoeae, strain CDC71 (GCREF2013 019)",0.016 µg/mL
same,MIC,"Neisseria gonorrhoeae, strain CDC72 (GCREF2013 020)",0.25 µg/mL
same,MIC,"Neisseria gonorrhoeae, strain CDC73 (GCREF2013 021)",0.125 µg/mL
same,MIC,"Neisseria gonorrhoeae, strain CDC74 (GCREF2013 022)",0.125 µg/mL
same,MIC,"Neisseria gonorrhoeae, strain CDC75 (GCREF2013 023)",0.125 µg/mL
same,MIC,"Neisseria gonorrhoeae, strain CDC76 (GCREF2013 024)",0.125 µg/mL
same,MIC,"Neisseria gonorrhoeae, strain CDC77 (GCREF2013 025)",0.125 µg/mL
same,MIC,"Neisseria gonorrhoeae, strain CDC78 (GCREF2013 026)",0.063 µg/mL
same,MIC,"Neisseria gonorrhoeae, strain CDC79 (GCREF2013 027)",0.125 µg/mL
same,MIC,"Neisseria gonorrhoeae, strain CDC80 (GCREF2013 028)",0.125 µg/mL
same,MIC,"Neisseria gonorrhoeae, strain CDC81 (GCREF2013 029)",0.25 µg/mL
same,MIC,"Neisseria gonorrhoeae, strain CDC82 (GCREF2013 031)",0.125 µg/mL
same,MIC,"Neisseria gonorrhoeae, strain CDC83 (GCREF2013 032)",0.125 µg/mL
same,MIC,"Neisseria gonorrhoeae, strain CDC84 (GCREF2013 033)",0.125 µg/mL
same,MIC,"Neisseria gonorrhoeae, strain CDC86 (GCREF2013 035)",0.125 µg/mL
same,MIC,"Neisseria gonorrhoeae, strain CDC87 (GCREF2013 036)",0.25 µg/mL
same,MIC,"Neisseria gonorrhoeae, strain CDC88 (GCREF2013 037)",0.125 µg/mL
same,MIC,"Neisseria gonorrhoeae, strain CDC89 (GCREF2013 038)",0.125 µg/mL
same,MIC,"Neisseria gonorrhoeae, strain CDC90 (GCREF2013 039)",0.125 µg/mL
same,MIC,"Neisseria gonorrhoeae, strain CDC91 (GCREF2013 040)",4 µg/mL
same,MIC,"Neisseria gonorrhoeae, strain CDC92 (GCREF2013 041)",0.125 µg/mL
same,MIC,"Neisseria gonorrhoeae, strain CDC93 (GCREF2013 042)",0.125 µg/mL
same,MIC,"Neisseria gonorrhoeae, strain CDC94 (GCREF2013 043)",0.125 µg/mL
same,MIC,"Neisseria gonorrhoeae, strain CDC95 (GCREF2013 045)",0.25 µg/mL
same,MIC,"Neisseria gonorrhoeae, strain CDC96 (GCREF2013 046)",0.125 µg/mL
same,MIC,"Neisseria gonorrhoeae, strain CDC97 (GCREF2013 047)",0.125 µg/mL
same,MIC,"Neisseria gonorrhoeae, strain CDC98 (GCREF2013 048)",0.125 µg/mL
same,MIC,"Neisseria gonorrhoeae, strain CDC99 (GCREF2013 012)",0.125 µg/mL
same,MIC,"Neisseria gonorrhoeae, strain CDC100 (GCREF2013 015)",0.25 µg/mL
same,MIC50,"Neisseria gonorrhoeae, 96 clinical isolates, read-out: MIC50",0.125 µg/mL
same,MIC90,"Neisseria gonorrhoeae, 96 clinical isolates, read-out: MIC90",0.25 µg/mL
